Assay results as given in patent publication US20040023886A1, “Method for treating neurological conditions and inducing immunosuppression with cephaibols” (Aventis Pharma Deutschland Gmbh, priority 2002, published 2004).
Entries after “also recorded” stand apart in the source; their conditions may differ. Where a SMILES comes first, the peptide text is derived from it. [ ]: non-standard residue; d: D form. Hyp = O=C(O)[CH]1C[CH](O)CN1; Phe(ol) = N[CH](CO)Cc1ccccc1; Iva = CC[C](C)(N)C(=O)O; Aib = CC(C)(N)C(=O)O

Columns and labels:
laboratory mice [1] = assay: Influence on spontaneous motility (neuroleptic effect, mouse model); format: in vivo; details: 10 mg/kg intraperitoneal, observed from 5 min up to 24 hours
Description: (§1) Neuroleptic effect of the cephaibols in the mouse model
The influence of cephaibols A, B, C, D and E on motoricity in laboratory mice was observed over various periods of time (from 5 min up to 24 hours).
Fright reactions (noises) were retained, thereby ruling out the possibility of the cephaibols having a narcotic effect in the experimental arrangement.

Phoma destructiva = assay: Induction of pigment formation in Phoma destructiva, punched-hole plate agar diffusion test; format: cell-based; details: 50 µL of test solution per hole, 20 to 25° C., 4 to 5 days
Text: The induction of pigment formation in the fungus Phoma destructiva is a test model for, inter alia, identifying a potential immunosuppressant effect in test substances. The implementation of the Phoma destructiva test has been described by K. Dornberger et al. in J. Antibiotics, §, 977-989,1995.
The organism Phoma destructiva is a fungus which is known to be pathogenic to plants and which grows, in feebly colored colonies, on agar plates which have been inoculated with vegetative mycelium. Cell differentiation processes, which are accompanied by the formation of a pigment and therefore enable cell differentiation to be detected, are initiated under the influence of special inducers. The pigment, which is a melanin-like substance, can be recognized by its color and quantified photometrically or by measuring the zone size.
The fungus Phoma destructiva was cultured on sloping agar tubes containing culture medium A or B at from 20 to 25° C. and then stored at from 4 to 6° C. and reinoculated in a 2-year rhythm.
The fungus Phoma destructiva was cultured at from 20 to 25° C. for 11 days on medium B in 100 mm diameter petri dishes and, after that, washed off with 10 ml of a sterile 0.9% solution of NaCl. The wash-off can be used for 5 days when stored at 8° C.
The agar diffusion test method was a modification of the standardized agar diffusion assay described in the European Pharmacopoeia [Deutscher Apothekerverlag Stuttgart, pages 113-118, 1997]: 40 mL of test agar medium were liquefied and brought to a constant temperature of 50° C.; from 8 to 10 mL of the inoculation culture were added under sterile conditions and the mixture was then poured into 150 mm diameter test plates. After the plates had cooled, 12 punched holes of 9 mm in diameter were arranged on the plate using a punching implement [J, V. Benett et al. Appl. Micr.1.1;, 170-177, 1966]. The test holes were loaded with 50JiL of the solution to be tested, with one test hole containing cyclosporin as the control substance (1 μg of cyclosporin A in 50 μL of methanol). […]

laboratory mice [2] = assay: Hypothermia (neuroleptic effect, mouse model); format: in vivo; details: 10 mg/kg intraperitoneal
Text: as §1

platelet aggregation = details: literature; cited from earlier work

Compound | motoricity (climbing) in comparison with the control mice (laboratory mice [1]) | pigment formation in Phoma destructiva (Phoma destructiva) | body temperature as compared with the control animals (laboratory mice [2]) | platelet aggregation (platelet aggregation)
CCC(C)(NC(=O)C(CC(C)C)NC(=O)CNC(=O)C(C)(C)NC(=O)C(C)(C)NC(=O)C(C)(C)NC(=O)C(C)(C)NC(=O)C(Cc1ccccc1)NC(C)=O)C(=O)NC(C)(C)C(=O)N1CC(O)CC1C(=O)NC(CCC(N)=O)C(=O)NC(C)(C)C(=O)N1CC(O)CC1C(=O)NC(C)(C)C(=O)N1CCCC1C(=O)NC(CO)Cc1ccccc1 (stereo not drawn) [cephaibol D, AcPhe-Aib-Aib-Aib-Aib-Gly-Leu-Aib-Aib-Hyp-Gln-Aib-Hyp-Aib-Pro-Xaa5] (Ac-F[Aib][Aib][Aib][Aib]GL[Iva][Aib][Hyp]Q[Aib][Hyp][Aib]P[Phe(ol)]; configuration not given here) | impaired | – | – | –
CCC(C)(NC(=O)C(CC(C)C)NC(=O)CNC(=O)C(C)(CC)NC(=O)C(C)(C)NC(=O)C(C)(C)NC(=O)C(C)(C)NC(=O)C(Cc1ccccc1)NC(C)=O)C(=O)NC(C)(C)C(=O)N1CC(O)CC1C(=O)NC(CCC(N)=O)C(=O)NC(C)(CC)C(=O)N1CC(O)CC1C(=O)NC(C)(C)C(=O)N1CCCC1C(=O)NC(CO)Cc1ccccc1 (stereo not drawn) [cephaibol B, AcPhe-Aib-Aib-Aib-Iva-Gly-Leu-Iva-Aib-Hyp-Gln-Iva-Hyp-Aib-Pro-Phe-ol] (Ac-F[Aib][Aib][Aib][Iva]GL[Iva][Aib][Hyp]Q[Iva][Hyp][Aib]P[Phe(ol)]; configuration not given here) | impaired; also recorded: particularly pronounced | particularly pronounced | marked reduction; also recorded: particularly pronounced | –
Clonostachin | – | – | – | inhibits
CCC(C)(NC(=O)C(CC(C)C)NC(=O)CNC(=O)C(C)(C)NC(=O)C(C)(C)NC(=O)C(C)(C)NC(=O)C(C)(C)NC(=O)C(Cc1ccccc1)NC(C)=O)C(=O)NC(C)(C)C(=O)N1CC(O)CC1C(=O)NC(CCC(N)=O)C(=O)NC(C)(CC)C(=O)N1CC(O)CC1C(=O)NC(C)(C)C(=O)N1CCCC1C(=O)NC(CO)Cc1ccccc1 (stereo not drawn) [cephaibol A, AcPhe-Aib-Aib-Aib-Aib-Gly-Leu-Iva-Aib-Hyp-Gln-Iva-Hyp-Aib-Pro-Phe-ol] (Ac-F[Aib][Aib][Aib][Aib]GL[Iva][Aib][Hyp]Q[Iva][Hyp][Aib]P[Phe(ol)]; configuration not given here) | impaired | particularly pronounced | marked reduction | –
CCC(C)(NC(=O)C(CC(C)C)NC(=O)CNC(=O)C(C)(C)NC(=O)C(C)(C)NC(=O)C(C)(C)NC(=O)C(C)(C)NC(=O)C(Cc1ccccc1)NC(C)=O)C(=O)NC(C)(C)C(=O)N1CC(O)CC1C(=O)NC(CCC(N)=O)C(=O)NC(C)(C)C(=O)N1CC(O)CC1C(=O)NC(C)(C)C(=O)N1CCCC1C(=O)NC(CO)Cc1ccccc1 (stereo not drawn) [cephaibol C, AcPhe-Aib-Aib-Aib-Aib-Gly-Leu-Iva-Aib-Hyp-Gln-Aib-Hyp-Aib-Pro-Phe-ol] (Ac-F[Aib][Aib][Aib][Aib]GL[Iva][Aib][Hyp]Q[Aib][Hyp][Aib]P[Phe(ol)]; configuration not given here) | impaired; also recorded: particularly pronounced | particularly pronounced | marked reduction; also recorded: particularly pronounced | –
